Experimental findings from patent publication US20180263996A1, “ARYL SULTAM DERIVATIVES AS RORc MODULATORS” (Genentech, Inc., priority 2015, published 2018) are described below.

The experiment has as its target T1, RORc (Homo sapiens, UniProt P51449).
T1 construct: host or cells: E. coli
T1 sequence (P51449 269-508 limits assumed): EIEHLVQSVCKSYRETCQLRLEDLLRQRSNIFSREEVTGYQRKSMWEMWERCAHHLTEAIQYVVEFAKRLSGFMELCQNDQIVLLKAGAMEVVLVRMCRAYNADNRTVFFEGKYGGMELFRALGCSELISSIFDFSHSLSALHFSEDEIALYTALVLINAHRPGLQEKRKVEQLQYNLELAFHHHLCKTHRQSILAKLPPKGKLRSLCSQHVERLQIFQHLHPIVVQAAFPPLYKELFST
The experiment in a line: In Vitro RORc Ligand Binding Assay. To be noted: IC50 values for RORc. As for the experimental part:
This assay was used to determine a compound's potency in inhibiting activity of RORc by determining, Kiapp, IC50, or percent inhibition values.
On day of the assay, 100 uL of 0.05% CHAPS (in deionized H2O) was added to all wells of the GFB Unifilter plate and allowed soak for 1 h. A wash buffer of 50 mM HEPES (pH 7.4), 150 mM NaCl, and 5 mM MgCl2 was prepared to wash the filter plate. To prepare an assay buffer, BSA was added to the wash buffer to reach 0.01% and DTT was added to reach 1 mM.
The 20× compound stocks were diluted in DMSO with Assay Buffer 4-fold to reach 5× the final test concentration in 25% DMSO (10 uL compound+30 uL Assay Buffer). Solutions were mixed by aspiration several times with a pipette set on 50 uL volume.
For two point screening, 10 mM stock compound solutions were diluted in DMSO to obtain 200 uM (20× the high test concentration) and then diluted 10-fold further to reach 20 uM (20× the low test concentration). The 20× stocks were diluted 4-fold with Assay Buffer (10 uL compound+30 uL Assay Buffer) to reach 5× the test concentrations (50 uM and 5 uM) and 10 uL were added to two assay plates for the duplicate wells. With each concentration tested on 2 plates, each set of 80 compounds used 4 assay plates (1 uM and 10 uM, with n=2).
For 25-hydroxycholesterol in 25% DMSO/75% Assay Buffer; 10 uL per well was used for NSB samples. Wells for Total Binding and No Receptor sample determination contained 10 uL of 25% DMSO/75% Assay Buffer per well.
Add 20 uL to all wells to reach 6 nM final concentration in the assay.
Stock receptor solution was diluted in assay buffer to obtain 1.5 ug/mL in Assay Buffer. 20 uL was added to all wells. For No Receptor samples, 20 uL Assay Buffer was substituted for receptor solution.
Assay plates were 96-well polypropylene V-bottom plates. […] 10 uL of 25% DMSO/75% Assay Buffer was added to Total Binding or No Receptor wells. 10 uL of 5 uM 25-hydroxycholesterol in 25% DMSO/75% Assay Buffer was added to NSB wells. […] 20 uL of 1.5 ug/mL RORc receptor was added to wells (or 40 uL Assay Buffer to No R wells). Following addition to the wells, the plates were incubated 3 h at 25° C.
Using a Packard Filtermate Harvester, the filter plate were washed 4 times following transfer of the incubated samples. Plates were dry-filtered completely (2 h at 50° C. or overnight at room temperature). 50 uL Microscint 0 was added to all wells and read on Topcount protocol Inverted.
Final concentrations were as follows: 50 mM HEPES buffer (pH 7.4); 150 mM NaCl; 1 mM DTT; 5 mM MgCl2; 0.01% BSA; 5% DMSO; 0.6 ug/mL RORc receptor; 6 nM 25-[^3H]hydroxycholesterol. For NSB wells, 1 uM 25-hydroxycholesterol was also present.

The IC50 is the point on the concentration scale where inhibition reaches its midpoint. Higher therefore signals weaker potency. `Cc1nnc(C(=O)NC(C)c2cc(F)c(CN3[C@@H](C)CC[C@H](c4ccccc4)S3(=O)=O)cc2F)o1` (stereo in doubt) [Compound 73, N-[1-[2,5-difluoro-4-[[(3S,6R)-3-methyl-1,1-dioxo-6-phenyl-thiazinan-2-yl]methyl]phenyl]ethyl]-5-methyl-1,3,4-oxadiazole-2-carboxamide] displayed an IC50 of 9.3 nM.
The figure for `COc1cc(C(=O)NC(C)c2cc(F)c(CN3[C@@H](C)CC[C@H](c4ccccc4)S3(=O)=O)cc2F)on1` (stereo in doubt) [Compound 74, N-[1-[2,5-difluoro-4-[[(3S,6R)-3-methyl-1,1-dioxo-6-phenyl-thiazinan-2-yl]methyl]phenyl]ethyl]-3-methoxy-isoxazole-5-carboxamide] is 7.3 nM; for `CC(NC(=O)c1cnco1)c1cc(F)c(CN2[C@@H](C)CC[C@H](c3ccccc3)S2(=O)=O)cc1F` (stereo in doubt) [Compound 75, N-[1-[2,5-difluoro-4-[[(3S,6R)-3-methyl-1,1-dioxo-6-phenyl-thiazinan-2-yl]methyl]phenyl]ethyl]oxazole-5-carboxamide] it is 76.1 nM.
The figure for `CC(NC(=O)c1csc(N)n1)c1cc(F)c(CN2[C@@H](C)CC[C@H](c3ccccc3)S2(=O)=O)cc1F` (stereo in doubt) [Compound 78, 2-amino-N-[1-[2,5-difluoro-4-[[(3S,6R)-3-methyl-1,1-dioxo-6-phenyl-thiazinan-2-yl]methyl]phenyl]ethyl]thiazole-4-carboxamide] is 215 nM; for `CC(NC(=O)c1csnn1)c1cc(F)c(CN2[C@@H](C)CC[C@H](c3ccccc3)S2(=O)=O)cc1F` (stereo in doubt) [Compound 79, N-[1-[2,5-difluoro-4-[[(3S,6R)-3-methyl-1,1-dioxo-6-phenyl-thiazinan-2-yl]methyl]phenyl]ethyl]thiadiazole-4-carboxamide] it is 3 nM.
On to `C[C@H]1CC[C@H](c2ccccc2)S(=O)(=O)N1Cc1ccc(C2(COCC3COC3)CCOCC2)cc1F` [Compound 3, (3S,6R)-2-[[2-fluoro-4-[4-(oxetan-3-ylmethoxymethyl)tetrahydropyran-4-yl]phenyl]methyl]-3-methyl-6-phenyl-thiazinane 1,1-dioxide], for which the IC50 worked out at 44.5 nM.
The figure for `C[C@H]1CC[C@H](c2ccccc2)S(=O)(=O)N1Cc1cc(F)c([C@H](CC2COC2)C(N)=O)cc1F` [Compound 4, (2S)-2-[2,5-difluoro-4-[[(3S,6R)-3-methyl-1,1-dioxo-6-phenyl-thiazinan-2-yl]methyl]phenyl]-3-(oxetan-3-yl)propanamide] is 31.8 nM; for `C[C@H]1CC[C@H](c2ccccc2)S(=O)(=O)N1Cc1cc(F)c([C@@H](CC2COC2)C(N)=O)cc1F` [Compound 5, (2R)-2-[2,5-difluoro-4-[[(3S,6R)-3-methyl-1,1-dioxo-6-phenyl-thiazinan-2-yl]methyl]phenyl]-3-(oxetan-3-yl)propanamide] it is 31 nM; for `C[C@H]1CC[C@H](c2ccccc2)S(=O)(=O)N1Cc1cc(F)c([C@H](OC2CCOCC2)C(N)=O)cc1F` [Compound 7, (2S)-2-[2,5-difluoro-4-[[(3S,6R)-3-methyl-1,1-dioxo-6-phenyl-thiazinan-2-yl]methyl]phenyl]-2-tetrahydropyran-4-yloxy-acetamide] it is 64.2 nM.
To `C[C@H]1CC[C@H](c2ccccc2)S(=O)(=O)N1Cc1cc(F)c([C@@H](OC2COC2)C(N)=O)cc1F` [Compound 8, (2R)-2-[2,5-difluoro-4-[[(3S,6R)-3-methyl-1,1-dioxo-6-phenyl-thiazinan-2-yl]methyl]phenyl]-2-(oxetan-3-yloxy)acetamide] belongs 31 nM.
The figure for `C[C@H]1CC[C@H](c2ccccc2)S(=O)(=O)N1Cc1cc(F)c([C@H](OC2COC2)C(N)=O)cc1F` [Compound 9, (2S)-2-[2,5-difluoro-4-[[(3S,6R)-3-methyl-1,1-dioxo-6-phenyl-thiazinan-2-yl]methyl]phenyl]-2-(oxetan-3-yloxy)acetamide] is 34.8 nM; for `C[C@H]1CC[C@H](c2ccccc2)S(=O)(=O)N1Cc1cc(F)c([C@@](C)(CO)C(N)=O)cc1F` [Compound 10, (2S)-2-[2,5-difluoro-4-[[(3S,6R)-3-methyl-1,1-dioxo-6-phenyl-thiazinan-2-yl]methyl]phenyl]-3-hydroxy-2-methyl-propanamide] it is 35.4 nM.
`C[C@H]1CC[C@H](c2ccccc2)S(=O)(=O)N1Cc1cc(F)c([C@](C)(CO)C(N)=O)cc1F` [Compound 11, (2R)-2-[2,5-difluoro-4-[[(3S,6R)-3-methyl-1,1-dioxo-6-phenyl-thiazinan-2-yl]methyl]phenyl]-3-hydroxy-2-methyl-propanamide] yielded an IC50 of 18.7 nM.
`C[C@H]1CC[C@H](c2ccccc2)S(=O)(=O)N1Cc1cc(F)c(C2(OCC(N)=O)CC3(COC3)C2)cc1F` [Compound 12, 2-[[6-[2,5-difluoro-4-[[(3S,6R)-3-methyl-1,1-dioxo-6-phenyl-thiazinan-2-yl]methyl]phenyl]-2-oxaspiro[3.3]heptan-6-yl]oxy]acetamide] yielded an IC50 of 2.3 nM.
The figure for `CNC(=O)COC1(c2cc(F)c(CN3[C@@H](C)CC[C@H](c4ccccc4)S3(=O)=O)cc2F)CC2(COC2)C1` [Compound 13, 2-[[6-[2,5-difluoro-4-[[(3S,6R)-3-methyl-1,1-dioxo-6-phenyl-thiazinan-2-yl]methyl]phenyl]-2-oxaspiro[3.3]heptan-6-yl]oxy]-N-methyl-acetamide] is 2.1 nM.
For `C=CCOC1(c2cc(F)c(CN3[C@@H](C)CC[C@H](c4ccccc4)S3(=O)=O)cc2F)CC2(COC2)C1` [Compound 14, (3S,6R)-2-[[4-(6-allyloxy-2-oxaspiro[3.3]heptan-6-yl)-2,5-difluoro-phenyl]methyl]-3-methyl-6-phenyl-thiazinane 1,1-dioxide], the IC50 amounted to 2.2 nM.
To `C[C@H]1CC[C@H](c2ccccc2)S(=O)(=O)N1Cc1cc(F)c(C2=CC(=O)C2)cc1F` [Compound 15, 3-[2,5-difluoro-4-[[(3S,6R)-3-methyl-1,1-dioxo-6-phenyl-thiazinan-2-yl]methyl]phenyl]cyclobut-2-en-1-one] belongs 6.5 nM.
To `C[C@H]1CC[C@H](c2ccccc2)S(=O)(=O)N1Cc1cc(F)c([C@H](CCC#N)C(N)=O)cc1F` [Compound 16, (2S)-4-cyano-2-[2,5-difluoro-4-[[(3S,6R)-3-methyl-1,1-dioxo-6-phenyl-thiazinan-2-yl]methyl]phenyl]butanamide] belongs 56.8 nM; to `C[C@H]1CC[C@H](c2ccccc2)S(=O)(=O)N1Cc1cc(F)c([C@@H](CCC#N)C(N)=O)cc1F` [Compound 17, (2R)-4-cyano-2-[2,5-difluoro-4-[[(3S,6R)-3-methyl-1,1-dioxo-6-phenyl-thiazinan-2-yl]methyl]phenyl]butanamide], 82.7 nM; to `C[C@H]1CC[C@H](c2ccccc2)S(=O)(=O)N1Cc1cc(F)c([C@@H](OCC2CC2)C(N)=O)cc1F` [Compound 18, (2R)-2-(cyclopropylmethoxy)-2-[2,5-difluoro-4-[[(3S,6R)-3-methyl-1,1-dioxo-6-phenyl-thiazinan-2-yl]methyl]phenyl]acetamide], 30.1 nM.
To `C[C@H]1CC[C@H](c2ccccc2)S(=O)(=O)N1Cc1cc(F)c([C@H](OCC2CC2)C(N)=O)cc1F` [Compound 19, (2S)-2-(cyclopropylmethoxy)-2-[2,5-difluoro-4-[[(3S,6R)-3-methyl-1,1-dioxo-6-phenyl-thiazinan-2-yl]methyl]phenyl]acetamide] belongs 50.7 nM; to `C[C@H]1CC[C@H](c2ccccc2)S(=O)(=O)N1Cc1cc(F)c(C(C)(C)NCC(N)=O)cc1F` [Compound 20, 2-[[1-[2,5-difluoro-4-[[(3S,6R)-3-methyl-1,1-dioxo-6-phenyl-thiazinan-2-yl]methyl]phenyl]-1-methyl-ethyl]amino]acetamide], 4.2 nM.
